Results on four molecules are retold here after publication PMC5004175, “Abcb1 in Pigs: Molecular cloning, tissues distribution, functional analysis, and its effect on pharmacokinetics of enrofloxacin” (Scientific Reports, 2016).

Like-named read-outs stand apart in the source and are kept apart here.

Data set [1] can be described thus: Bidirectional transport assay of enrofloxacin in MDCK parental cell monolayers. The note with it: dog, MDCK cells, enrofloxacin 12 μM alone. The class given is in vitro ADME, canine. As for the experimental part: (§1) Transport assays were carried out as described[45] with minor modifications. MDCK and MDCK-pAbcb1 with a density of 6.6 × 10^4 cells/insert were seeded on a polyethylene terephthalate membrane insert (Millicell cell culture inserts, 1.0 μm pore size, 6.5 mm diameter) in 24-well culture plates. […] Samples were stored at −20 °C. All experiments were conducted in triplicate.
(§2) In brief, plasma was thawed at room temperature and centrifuged at 2,000 × g for 5 min. […] The organic phase was evaporated to dryness under a nitrogen stream and residue was resuspended with mobile phase solution. The samples from the transport assays were directly evaporated to dryness under a nitrogen stream and 40 μL of the mobile phase solution was used to concentrate the samples for 5 times. Twenty microliters of the mixture were injected into the HPLC column (Kromasil C18 columns, […] particle size, 250 × 4.6 mm). The mobile phase composition was 0.1 M phosphoric acid (adjusted pH to 3.5 with triethylamine)/acetonitrile (84:16, v/v) and the flow rate of mobile phase was set to 0.85 mL/min. UV absorbance was measured at 278 nm.
(§3) Apparent permeability coefficients (Papp) were calculated using the following equation: Papp = (dQ/dt)/(A × C0), where A is the area of filter membrane, C0 is the initial concentration of the test drug, dQ is the amount of transported drug, and dt is time elapsed. The efflux ratio (ER) was calculated from (Papp B → A)/(Papp A → B)[59]. Where Papp B → A and Papp A → B are BL to AP and AP to BL apparent permeability coefficients, respectively. The net efflux ratio was calculated using the following equation: Net efflux ratio = efflux ratio in MDCK-pAbcb1/efflux ratio in MDCK.

In data set [2] the test system is porcine P-gp. In words: Bidirectional transport assay of enrofloxacin in MDCK-pAbcb1 cell monolayers. The class given is in vitro ADME, pig. As for the experimental part: as §1, §2, §3
Another data set in a line: in vivo. The note with it: pig, plasma, po, 10 mg/kg.
The nature of data set [3]: Pharmacokinetics of oral enrofloxacin in healthy pigs with/without verapamil. The note with it: enrofloxacin 10 mg/kg po alone, mean ± SEM, n = 4.
A further data set concerns P-gp. Briefly: P-gp inhibition (data not shown).
Data set [4] has as its system porcine P-gp. The note with it: 5 μM Rho123, during 2 h, p < 0.01.
A short description of data set [5]: Tolerability of P-gp inhibitor pre-treatment in piglets. Type of data set: in vivo. The note with it: piglets treated with the P-gp inhibitor; dose not given.

Usually Papp A→B stands for how fast a substance crosses the layer from the apical side. Broadly, the Papp B→A is the apparent permeability from the basolateral to the apical side of a cell layer. Usually Cmax stands for the peak of the concentration-time curve. A word on the Tmax: it is the time at which the peak concentration occurs. In the case of `CCN1CCN(c2cc3c(cc2F)c(=O)c(C(=O)O)cn3C2CC2)CC1` [ENRO, enrofloxacin], in data set [1] (120 min, mean ± SEM, n = 3), the Papp A→B at 120 min, 12 μM was 124 ± 5.9 nm/s and the basolateral-to-apical permeability (Papp B→A) at 120 min, 12 μM is 129 ± 16.5 nm/s. The efflux ratio at 120 min, 12 μM in data set [1] (Papp B→A / Papp A→B) amounted to 1.04 ± 0.11. Besides, in the data set on porcine P-gp [2] (enrofloxacin 12 μM alone, efflux ratio in MDCK-pAbcb1 / efflux ratio in MDCK), the Net efflux ratio was determined as 2.48. The Papp B→A at 120 min, 12 μM with porcine P-gp [2] (pig, MDCK-MDR1, MDCK-pAbcb1 cells, enrofloxacin 12 μM alone, 120 min, mean ± SEM, n = 3) was found to be 199 ± 15.7 nm/s. In addition, in the data set on porcine P-gp [2] (pig, MDCK-pAbcb1, MDCK-pAbcb1 cells, enrofloxacin 12 μM alone, Papp B→A / Papp A→B, read-out: Efflux ratio), the efflux ratio at 120 min, 12 μM was 2.58 ± 0.25. Besides, the efflux ratio at 120 min, 12 μM with porcine P-gp [2] (pig, MDCK-pAbcb1, enrofloxacin 12 μM alone, efflux ratio in MDCK-pAbcb1 / efflux ratio in MDCK, read-out: Net efflux ratio) is greater than 2. In addition, in the data set with porcine P-gp [2] (pig, MDCK-pAbcb1 cells, enrofloxacin 12 μM alone, 120 min, mean ± SEM, n = 3), the apparent permeability from apical to basolateral (Papp A→B) at 120 min, 12 μM was 77.8 ± 12.8 nm/s. In “in vivo”, the peak concentration (Cmax) was found to be 3.39 ± 0.12 µg/mL, the Tmax was determined as 2.01 ± 0.09 h and the k el was 7.78e-05 s⁻¹. Also, in data set [3], the “AUC (area under the plasma concentration-time curve)” value was 13.57 ± 0.96 (μg/mL)·h. In addition, in data set [3] (plasma), the “CL/F (Clearance/F)” value is 0.47 ± 0.01 (mg/kg/h)/(μg/mL), the “Ka (absorption rate constant)” value came out at 0.82 ± 0.11 h⁻¹, the “T1/2ka (absorption half-life)” value is listed as 0.88 ± 0.20 h and the “T1/2ke (elimination half-life)” value came to 2.50 ± 0.23 h. For the same molecule, the “V/F (volume of distribution/F)” value in data set [3] (plasma) is 1.69 ± 0.18 (mg/kg)/(μg/mL).

`COc1ccc2cc3[n+](cc2c1OC)CCc1cc2c(cc1-3)OCO2` [Berberine]: the “Inhibition of P-gp” value with P-gp is given as “can significantly inhibit P-gp”.

In the case of `COC(=O)c1ccccc1-c1c2ccc(=N)cc-2oc2cc(N)ccc12` [Rho123, rhodamine 123], in the data set on porcine P-gp [4], the “Accumulation of Rho123 in MDCK-pAbcb1 cells compared with MDCK cells” value is “accumulated less Rho123 than MDCK cells”.

On to `C/C=C/C[C@@H](C)C(=O)[C@H]1C(=O)N[C@@H](C(C)C)C(=O)N(C)CC(=O)N(C)[C@@H](CC(C)C)C(=O)N[C@@H](C(C)C)C(=O)N(C)[C@@H](CC(C)C)C(=O)N[C@@H](C)C(=O)N[C@H](C)C(=O)N(C)[C@@H](CC(C)C)C(=O)N(C)[C@@H](CC(C)C)C(=O)N(C)[C@@H](C(C)C)C(=O)N1C` [PSC-833], for which the “Adverse effect in treated piglets” value in data set [5] was “some animals began vomiting”.
